Laboratory results taken from patent publication US20260265832A1, “ADAR1 INHIBITORS FOR TREATING CANCER” (INSTITUE OF CANCER RESEARCH ROYAL CANCER HOSPITAL, priority 2023, published 2026).

Legend:
Brca1-mutant (Δ11) MEFs = experiment: Clonogenic survival and dose-response survival with 8-azaadenosine; assay type: cell-based, mouse; settings: MEF Brca1-Δ11 vs Brca1-wildtype; 8 days clonogenic, 7 days dose-response
Text: (§1) FIG. 7. A. Clonogenic survival of Brca1-wildtype and Brca1-mutant (Δ11) MEFs exposed to 8-azaadenosine for 8 days. B. Dose-response survival curves of Brca1-wildtype and Brca1-mutant (Δ11) MEFs exposed to increasing concentrations of 8-azaadenosine for 7 days. C. Clonogenic survival of BRCA2-wildtype and BRCA2-knockout DLD1 cells exposed to 8-azaadenosine for 8 days. D. Dose-response survival curves of BRCA2-wildtype and BRCA2-knockout DLD1 cells exposed to increasing concentrations of 8-azaadenosine for 7 days. All graphs show median. Error bars represent Standard Deviation (SD).

[1] = system: BRCA2-knockout DLD1 cells; experiment: as above; assay type: cell-based; settings: DLD1 BRCA2-KO vs BRCA2-wildtype; 8 days clonogenic, 7 days dose-response
Text: as §1

Compound: Nc1ncnc2c1nnn2[C@@H]1O[C@H](CO)[C@@H](O)[C@H]1O [8-azaadenosine, 3-(β-D-Ribofuranosyl)-3H-[1,2,3]triazolo[4,5-d]pyrimidin-7-amine]
- BRCA1 synthetic lethality (clonogenic survival, dose-response survival) (Brca1-mutant (Δ11) MEFs): elicited BRCA1 synthetic lethality
- BRCA2 synthetic lethality (clonogenic survival, dose-response survival) [1]: BRCA2 synthetic lethality
